# Assays:
# [1] = molecular target: T1, imidazole glycerol phosphate synthase (IGPS), HisH-HisF heterodimer (Thermotoga maritima, UniProt Q9X0C6+Q9X0C8); assay: glutaminase assay, coupled glutamate dehydrogenase/APAD; type: biochemical
# [2] = molecular target: T1, imidazole glycerol phosphate synthase (IGPS), HisH-HisF heterodimer; assay: isothermal titration calorimetry; type: binding
compound,measurement,setting,value
"CCC(CNCCO)Nc1nc2c(c(=O)n(C)c(=O)n2C)n1Cc1ccccc1 (centres unmarked) [compound 3, 7-benzyl-8-[(1-{[(2-hydroxyethyl)amino]methyl}propyl)amino]-1,3-dimethyl-2,3,6,7-tetrahydro-1H-2,6-purinedione]",Ki,[1],900 ± 70 µM
same,Kd,[2],1500 ± 300 µM

# — publication PMC5283573 (Biochemistry, 2016)
